# Assay results: paper PMC12298351, “Novel 3,19-(N-Phenyl-3-(4-fluorophenyl)-pyrazole) Acetal of Andrographolide Promotes Cell Cycle Arrest and Apoptosis in MDA-MB-231 Breast Cancer Cells” (Pharmaceuticals, 2025)
# How the values were obtained:
# SK-MEL-28 = settings: SK-MEL-28, Melanoma
# MALME-3M = settings: Melanoma
# UACC-257 = settings: UACC-257, Melanoma
# HCC-2998 = settings: HCC-2998, Colon
# IGROV1 = settings: IGROV1, Ovarian
# PC-3 = settings: PC-3, Prostate
# KM12 = settings: KM12, Colon
# OVCAR-3 = settings: OVCAR-3, Ovarian
# HCT-15 = settings: HCT-15, Colon
# A498 = settings: A498, Renal
# TK-10 = assay type: cell-based; settings: TK-10, Renal
# MDA-MB-468 = settings: MDA-MB-468, Breast
# U251 = settings: U251, CNS
# HCT-116 = assay type: cell-based; settings: HCT-116, Colon
# MOLT-4 = settings: MOLT-4, Leukemia
# SF-268 = settings: SF-268, CNS
# CAKI-1 = settings: CAKI-1, Renal
# SNB-75 = settings: SNB-75, CNS
# SF-539 = settings: SF-539, CNS
# [1] = read-out: 50% lethal concentration (LC50)
# [2] = read-out: 50% lethal concentration (LC50), Leukemia
# [3] = read-out: 50% lethal concentration (LC50), Breast
compound,measurement,setting,value
C=C1CCC2C3(C)COC(c4cn(-c5ccccc5)nc4-c4ccc(Cl)cc4)OC3CCC2(C)C1CC=C1C(=O)OCC1O (stereo not drawn) [1g],GI50,SK-MEL-28,1.78 µM
same,Total growth inhibition (TGI),SK-MEL-28,3.36 µM
same,CC50,SK-MEL-28; [1],6.35 µM
same,GI50,MALME-3M,1.82 µM
same,Total growth inhibition (TGI),MALME-3M,3.41 µM
same,GI50,UACC-257,1.8 µM
same,Total growth inhibition (TGI),UACC-257,3.63 µM
same,GI50,HCC-2998,1.88 µM
same,Total growth inhibition (TGI),HCC-2998,3.39 µM
same,GI50,IGROV1,4.29 µM
same,Total growth inhibition (TGI),IGROV1,46.1 µM
same,CC50,IGROV1; [1],> 100 µM
same,Total growth inhibition (TGI),"NCI-H522; NCI-H522, Non-Small Cell Lung",3.12 µM
same,GI50,"NCI-H522; NCI-H522, Non-Small-Cell Lung",1.58 µM
same,CC50,"NCI-H522; read-out: 50% lethal concentration (LC50), NCI-H522, Non-Small Cell Lung",6.17 µM
same,GI50,PC-3,2.07 µM
same,Total growth inhibition (TGI),PC-3,> 100 µM
same,CC50,PC-3; [1],> 100 µM
same,GI50,KM12,2.29 µM
same,Total growth inhibition (TGI),KM12,4.92 µM
same,Total growth inhibition (TGI),"HOP-92; HOP-92, Non-Small Cell Lung",3.08 µM
same,GI50,"HOP-92; HOP-92, Non-Small-Cell Lung",1.5 µM
same,CC50,"HOP-92; read-out: 50% lethal concentration (LC50), HOP-92, Non-Small Cell Lung",6.32 µM
same,GI50,OVCAR-3,1.78 µM
same,Total growth inhibition (TGI),OVCAR-3,3.72 µM
same,CC50,OVCAR-3; [1],7.77 µM
same,GI50,HCT-15,1.59 µM
same,Total growth inhibition (TGI),HCT-15,3.21 µM
same,CC50,HCT-15; [1],6.51 µM
same,Total growth inhibition (TGI),"NCI-H460; NCI-H460, Non-Small Cell Lung",3.72 µM
same,GI50,"NCI-H460; NCI-H460, Non-Small-Cell Lung",1.79 µM
same,CC50,"NCI-H460; read-out: 50% lethal concentration (LC50), NCI-H460, Non-Small Cell Lung",7.76 µM
same,GI50,A498,5.2 µM
same,Total growth inhibition (TGI),A498,19 µM
same,CC50,A498; [1],53.7 µM
same,GI50,TK-10,1.33 µM
same,Total growth inhibition (TGI),TK-10,2.74 µM
same,Total growth inhibition (TGI),"HOP-62; HOP-62, Non-Small Cell Lung",4.95 µM
same,GI50,"HOP-62; HOP-62, Non-Small-Cell Lung",2.36 µM
same,CC50,"HOP-62; read-out: 50% lethal concentration (LC50), HOP-62, Non-Small Cell Lung",> 100 µM
same,GI50,HL-60(TB); Leukemia,2.67 µM
same,Total growth inhibition (TGI),HL-60(TB); Leukemia,> 100 µM
same,CC50,HL-60(TB); [2],> 100 µM
same,GI50,T-47D; Breast,1.31 µM
same,Total growth inhibition (TGI),T-47D; Breast,3.6 µM
same,CC50,T-47D; [3],> 100 µM
same,GI50,MDA-MB-468,2 µM
same,Total growth inhibition (TGI),MDA-MB-468,4.49 µM
same,CC50,MDA-MB-468; [1],6.36 µM
same,GI50,LOX IMVI; Melanoma,1.58 µM
same,Total growth inhibition (TGI),LOX IMVI; Melanoma,2.94 µM
same,CC50,"LOX IMVI; read-out: 50% lethal concentration (LC50), Melanoma",5.48 µM
same,GI50,U251,2.39 µM
same,Total growth inhibition (TGI),U251,3.19 µM
same,Total growth inhibition (TGI),EKVX; Non-Small Cell Lung,5.28 µM
same,GI50,EKVX; Non-Small-Cell Lung,2.24 µM
same,CC50,"EKVX; read-out: 50% lethal concentration (LC50), Non-Small Cell Lung",> 100 µM
same,GI50,HCT-116,1.2 µM
same,Total growth inhibition (TGI),HCT-116,2.53 µM
same,CC50,HCT-116; [1],5.37 µM
same,GI50,"MDA-MB-231; MDA-MB-231, Breast",1.68 µM
same,Total growth inhibition (TGI),"MDA-MB-231; MDA-MB-231/ATCC, Breast",4.6 µM
same,CC50,"MDA-MB-231; read-out: 50% lethal concentration (LC50), MDA-MB-231/ATCC, Breast",6.25 µM
same,GI50,MOLT-4,0.88 µM
same,Total growth inhibition (TGI),MOLT-4,> 100 µM
same,CC50,MOLT-4; [1],> 100 µM
same,GI50,SF-268,2.39 µM
same,Total growth inhibition (TGI),SF-268,6.32 µM
same,CC50,SF-268; [1],> 100 µM
same,GI50,CAKI-1,1.63 µM
same,Total growth inhibition (TGI),CAKI-1,3.28 µM
same,CC50,CAKI-1; [1],6.59 µM
same,GI50,HS 578T; Breast,1.75 µM
same,Total growth inhibition (TGI),HS 578T; Breast,3.24 µM
same,CC50,HS 578T; [3],6.45 µM
same,GI50,ACHN; Renal,1.89 µM
same,Total growth inhibition (TGI),ACHN; Renal,3.95 µM
same,CC50,"ACHN; read-out: 50% lethal concentration (LC50), Renal",8.23 µM
same,GI50,SNB-75,1.69 µM
same,Total growth inhibition (TGI),SNB-75,2.87 µM
same,CC50,SNB-75; [1],5.87 µM
same,GI50,SR; Leukemia,2.53 µM
same,Total growth inhibition (TGI),SR; Leukemia,> 100 µM
same,CC50,SR; [2],> 100 µM
same,GI50,SF-539,1.72 µM
same,Total growth inhibition (TGI),SF-539,3.12 µM
same,CC50,SF-539; [1],5.66 µM
